Data on two molecules can be found in patent US11753407B2, “Compounds for treating spinal muscular atrophy” (PTC Therapeutics, Inc., priority 2012, dated 2023).

For assay [1], the system named is SMN2 mRNA in GM03813 SMA patient cells. Kind of assay: Endogenous SMN2 mRNA end-point semi-quantitative RT-PCR splicing assay in cultured cells. The format is cell-based, human. The settings on record: Type 1 SMA patient fibroblasts, increasing concentrations, 24 hr, end-point RT-PCR (FIG. 5). The method, then:
The endpoint reverse transcription-PCR splicing assay is used to visualize and quantify the levels of the full length and Δ7 SMN2 mRNA in primary cells and cell lines containing the SMN2 gene treated with a test compound.
Protocol. GM03813 SMA patient cells (5,000 cells/well) are seeded in 200 μL of cell culture medium (DMEM plus 10% FBS) in 96-well flat-bottom plates and the plate is immediately swirled to ensure proper dispersal of cells, forming an even monolayer of cells. Cells are allowed to attach for at least 4-6 hrs. Test compounds are serially diluted 3.16-fold in 100% DMSO to generate a 7-point concentration curve. A solution of test compound (1 μL, 200× in DMSO) is added to each test well and 1 μL DMSO is added to each control well. The plate is incubated for 24 hrs in a cell culture incubator (37° C., 5% CO2, 100% relative humidity). The cells are then lysed in Cells-To-Ct lysis buffer and the lysate is stored at −80° C.
SMN FL and Δ7 mRNA are identified using the following primers in Table 6. These primers hybridize to a nucleotide sequence in exon 6 (SMN Forward C, SEQ ID NO. 11) (nucleotide 43 to nucleotide 63) and exon 8 (SMN Reverse C, SEQ ID NO. 12) (nucleotide 51 to nucleotide 73) common to human SMN1 and SMN2 mRNA. Since the SMA patient cells used in Example 4 contain only the SMN2 gene, RT-PCR can visualize and quantify only SMN2 full-length and SMN2 Δ7 mRNA.
To synthesize cDNA, 5 μL of lysate, 4 μL of 5× iScript reaction mix, 1 μL of reverse transcriptase, and 10 μL of water are combined and incubated 5 min at 25° C. followed by 30 min at 42° C., followed by 5 min at 85° C. The cDNA solution is stored at −20° C.
To perform endpoint PCR, 5 μL of cDNA, 0.2 μL of 100 μM forward primer, 0.2 μL of 100 μM reverse primer, and 22.5 μL of polymerase super mix are combined in a 96 well semiskirted PCR plate. PCR is carried out at the following temperatures for the indicated time: Step 1: 94° C. (2 min), Step 2: 94° C. (30 sec), Step 3: 55° C. (30 sec), Step 4: 68° C. (1 min), then repeat Steps 2 to 4 for a total of 33 cycles, then hold at 4° C.
10 μL of each PCR sample is electrophoretically separated on a 2% agarose E-gel for 14 minutes stained with double-stranded DNA (dsDNA) staining reagents (e.g., ethidium bromide) and visualized using a gel imager.

Assay [2] in a line: Body weight of neonatal Δ7 SMA mice. The class given is in vivo. The settings on record: neonatal SMA Δ7 homozygous knockout mice. Here is the method:
The change in body weight of neonatal SMA mice is used to determine whether treatment with a test compound improves body weight.
Protocol. SMA Δ7 homozygous knockout mice are dosed intraperitoneally (IP) with test compound or vehicle (100% DMSO) QD from PND 3 until the dose regimen is switched to an oral dose BID in 0.5% hydroxypropylmethyl cellulose (HPMC) with 0.1% Tween-80 at a dose 3.16-fold higher than the dose used for IP. Body weights of SMA Δ7 mice treated with test compound or vehicle and age matched heterozygous mice are recorded every day.

The next assay relates to Smn protein. The assay can be described thus: Smn protein levels in tissues of Δ7 SMA mice of the survival study. The class given is in vivo. To be noted: spinal cord. The method, then:
Protocol. The tissue samples in Safe-Lock tubes are weighed and the volume of RIPA buffer containing the protease inhibitor cocktail is added based on the weight to volume ratios for each type of tissue: Brain (50 mg/mL), Muscle (50 mg/mL) and Spinal Cord (25 mg/mL).
Tissues are homogenized using the TissueLyzer by bead milling. 5 mm stainless steel beads are added to the sample and shaken vigorously for 5 minutes at 30 Hz in the TissueLyzer. The samples are then centrifuged for 20 minutes at 14,000×g in a microcentrifuge and the homogenates transferred to the PCR plate. […] Fluorescence for each well of the plate at 665 nm and 620 nm is measured on an EnVision multilabel plate reader (Perkin-Elmer). The total protein in the tissue homogenate is measured using the BCA assay according to the manufacturer's protocol.
The normalized fluorescence signal is calculated for each sample, Blank and vehicle control well by dividing the signal at 665 nm by the signal at 620 nm. Normalizing the signal accounts for possible fluorescence quenching due to the matrix effect of the tissue homogenate. […] The ΔF value for each tissue sample well is divided by the total protein quantity (determined using the BCA assay) for that tissue sample. […]
Protocol. […] The number of surviving mice in each group is recorded every day and plotted as a percent of total number of mice. […]

For the molecule `COc1ccc(-c2cc(=O)n3cc(N4CCNCC4)ccc3n2)cc1OC` [Cpd 6, 2-(3,4-dimethoxyphenyl)-7-(piperazin-1-yl)-4H-pyrido[1,2-a]pyrimidin-4-one], in assay [1], the “SMN2 FL mRNA” value was “progressively more SMN2 FL mRNA” and the “SMN2 Δ7 mRNA” value is “less SMN2 Δ7 mRNA”. Also, the body weight result in assay [2] (IP QD PND 3 to PND 30, then orally BID from PND 31 until study end (FIG. 13a)) is recorded as “improved compared to vehicle treated mice”. The Smn protein expression result in the assay on Smn protein (IP 10 mg/kg QD PND 3-30, then orally 30 mg/kg BID PND 31-156, brain, muscle (FIG. 16a)) was “increased Smn protein expression in brain, spinal cord, and muscle tissues”.
In the case of `Cc1cn2nc(-c3cc(=O)n4cc(N5CCN(C)CC5)ccc4n3)cc2c(C)n1` [Cpd 170, 2-(4,6-dimethylpyrazolo[1,5-a]pyrazin-2-yl)-7-(4-methylpiperazin-1-yl)-4H-pyrido[1,2-a]pyrimidin-4-one], in assay [1], the “SMN2 FL mRNA” value was “progressively more SMN2 FL mRNA” and the “SMN2 Δ7 mRNA” value is “less SMN2 Δ7 mRNA”. Besides, the body weight result in assay [2] (IP QD PND 3 to PND 23, then orally BID from PND 24 until study end (FIG. 13b)) was “improved compared to vehicle treated mice”. In the assay on Smn protein (IP 3 mg/kg QD PND 3-23, orally 10 mg/kg BID PND 24-88, orally 20 mg/kg QD PND 89-185, brain, muscle (FIG. 16b)), the Smn protein expression entry is “increased Smn protein expression in brain, spinal cord, and muscle tissues”.
